Reference: ChEMBL document CHEMBL2417443, “Efficient synthesis and antiproliferative activity of novel thioether-substituted flavonoids” (Eur J Med Chem, 2013)

Assays:
Type in all cases: functional, cell-based
MCF7 = assay: Cytotoxicity against human MCF7 cells after 72 hrs by MTT assay; conditions: MCF7, 72 h
HEp-2 = assay: Cytotoxicity against human Hep2 cells after 72 hrs by MTT assay; conditions: HEp-2, 72 h
[1] = Cytotoxicity against human MDA-MB-435S cells after 72 hrs by MTT assay
SW480 = assay: Cytotoxicity against human SW480 cells after 72 hrs by MTT assay; conditions: SW480, 72 h
[2] = Cytotoxicity against human LM7 cells after 72 hrs by MTT assay; conditions: LM7, 72 h
HeLa = assay: Cytotoxicity against human HeLa cells after 72 hrs by MTT assay

Row | Structure (SMILES) | IC50 (MCF7) | IC50 (HEp-2) | IC50 [1] | IC50 (SW480) | IC50 [2] | IC50 (HeLa)
1 | Cc1cc(C)nc(SCn2cnc3c(Cl)cccc3c2=O)n1 | > 25 µM | > 25 µM | > 25 µM | > 25 µM | > 25 µM | > 25 µM
2 | O=c1cc(SCn2cnc3ccccc3c2=O)sc2ccccc12 | 5.3 µM | 5.9 µM | 4.1 µM | 8.5 µM | 17 µM | 6.3 µM
3 | Cc1cc(C)n2nc(SCn3cnc4c(Cl)cccc4c3=O)nc2n1 | > 25 µM | > 25 µM | > 25 µM | > 25 µM | > 25 µM | > 25 µM
4 | O=c1c(CSc2nc3ccccc3o2)coc2ccccc12 | 4.8 µM | 2.7 µM | 1.4 µM | 3.2 µM | 5.3 µM | > 25 µM
5 | Cc1cc(C)n2nc(SCc3nnc(SCc4cc(=O)c5ccccc5o4)n3N)nc2n1 | > 25 µM | > 25 µM | > 25 µM | > 25 µM | > 25 µM | > 25 µM
6 | Cc1cc(C)nc(SCc2cc(=O)c3cc(Cl)ccc3o2)n1 | > 25 µM | > 25 µM | > 25 µM | > 25 µM | > 25 µM | > 25 µM
7 | Cc1ccc2oc(CSc3nnc(C)o3)cc(=O)c2c1 | > 25 µM | > 25 µM | > 25 µM | > 25 µM | > 25 µM | > 25 µM
8 | Nc1nnc(SCc2coc3ccccc3c2=O)s1 | > 25 µM | 1.5 µM | 0.95 µM | > 25 µM | 0.73 µM | > 25 µM
9 | O=c1cc(CSc2nc3ccccc3s2)oc2ccccc12 | > 25 µM | > 25 µM | > 25 µM | > 25 µM | > 25 µM | > 25 µM
10 | O=c1cc(CSc2nc3ccccc3s2)oc2ccc(Cl)cc12 | > 25 µM | > 25 µM | > 25 µM | > 25 µM | > 25 µM | > 25 µM
11 | Nc1nnc(SCc2cc(=O)oc3c2ccc2ccccc23)s1 | > 25 µM | > 25 µM | > 25 µM | > 25 µM | > 25 µM | > 25 µM
12 | Cc1ccc2oc(CSc3nnc(N)s3)cc(=O)c2c1 | > 25 µM | > 25 µM | > 25 µM | > 25 µM | > 25 µM | > 25 µM
13 | O=c1c2cccc(Cl)c2ncn1CSc1nc2ccccc2o1 | > 25 µM | > 25 µM | > 25 µM | > 25 µM | > 25 µM | > 25 µM
14 | Nc1nnc(SCc2cc(=O)c3ccccc3o2)s1 | > 25 µM | > 25 µM | > 25 µM | > 25 µM | > 25 µM | > 25 µM
15 | Cc1ccc2oc(CSc3nc(C)cc(C)n3)cc(=O)c2c1 | > 25 µM | > 25 µM | > 25 µM | > 25 µM | > 25 µM | > 25 µM
16 | Cc1cc(O)cc2oc(=O)cc(CSc3nc4ccccc4o3)c12 | > 25 µM | > 25 µM | > 25 µM | > 25 µM | > 25 µM | > 25 µM
17 | Cc1cc(O)cc2oc(=O)cc(CSc3nc4ccccc4s3)c12 | > 25 µM | > 25 µM | > 25 µM | > 25 µM | > 25 µM | > 25 µM
18 | COC(=O)Nc1ccc2c(CSc3nc(C)cc(C)n3)cc(=O)oc2c1 | 9.9 µM | 8 µM | 19 µM | 13.2 µM | 8.2 µM | 14.3 µM
19 | COC(=O)Nc1ccc2c(CSc3nnc(CSc4nc(C)cc(C)n4)s3)cc(=O)oc2c1 | 9.4 µM | 2.1 µM | 4.6 µM | 3.7 µM | 2.3 µM | 15.9 µM
20 | Cc1nnc(SCc2cc(=O)c3ccccc3o2)o1 | > 25 µM | > 25 µM | > 25 µM | > 25 µM | > 25 µM | > 25 µM
21 | Nc1nnc(SCc2cc(=O)c3cc(Cl)ccc3o2)s1 | > 25 µM | > 25 µM | > 25 µM | > 25 µM | > 25 µM | > 25 µM
22 | Cc1cc(C)n2nc(SCc3nnc(SCc4cc(=O)c5ccccc5o4)o3)nc2n1 | > 25 µM | > 25 µM | > 25 µM | > 25 µM | > 25 µM | > 25 µM
23 | Cc1nnc(SCc2cc(=O)c3cc(Cl)ccc3o2)o1 | > 25 µM | > 25 µM | > 25 µM | > 25 µM | > 25 µM | > 25 µM
24 | Cc1cc(C)n2nc(SCn3cnc4ccccc4c3=O)nc2n1 | > 25 µM | > 25 µM | > 25 µM | > 25 µM | > 25 µM | > 25 µM
